Blank lines part the entries; values can stand above or below the compound they belong to. Where a SMILES comes first, the peptide text is derived from it. The star is where a group is joined. Decanoyl = CCCCCCCCCC(=O)*; Cbz = O=C(OCc1ccccc1)*; CH2Cl = ClC*
Columns and labels:
[1] = tested on: TGFalpha release, HEK293T cells; assay: Time course after PMA induction of HEK293T cells overexpressing pro-TGFalpha, with protease inhibitors; type: cell-based, human
Method: Cell culture and cell-based rhomboid cleavage assay. Cells were propagated in DMEM supplemented with 10% fetal calf serum. COS-7 cells were transfected in 35 mm wells with FuGENE 6 (Roche) as described (7). In brief, 250 ng plasmid encoding the substrate (as indicated in the description of the figures), 25 ng for the rhomboid tested, 50 ng for the GRP receptor and empty plasmid to bring the total DNA to 1 μg was used. For protease titration, 2.5 ng to 250 ng plasmid coding RHBDL4 was used. HeLa and HEK293T were transfected with polyethyleneimine (linear, MW 25000; Polysciences) as described (32) using twice the amount of DNA as used with FuGENE. Transfection efficiency was monitored by co-transfection of pEGFP (Invitrogen). Sixteen hours post transfection, medium was replaced with serum-free medium containing 10 μM BB94 (British Biotech) unless otherwise stated. For activation of endogenous rhomboid activity, phorbol 12-myristate 13-acetate (PMA) (1 μM, from Sigma) or bombesin (100 nM, from Sigma) was added to the cell medium. For inhibitor studies, the indicated protease inhibitors (from Calbiochem), diluted from a stock solution in DMSO, were compared with a carrier only. Medium was harvested typically after 24 to 30 hours; for inhibitor studies using 3,4-Dichloroisocoumarin (DCI) a time course with 0 minutes, 30 minutes and 4 hours was performed (FIG. 4C). Cells were solubilized in SDS-sample buffer and analyzed by SDS-PAGE. EndoH (New England Biolabs) and PNGaseF (New England Biolabs) treatment of SDS-solubilized cell extracts was performed according to the manufacturers instructions. Conditioned media were centrifuged for 10 minutes at full speed in a microfuge to remove cell debris, and subsequently proteins in the supernatant were precipitated by adding trichloroacetic acid (TCA) to 10%. The precipitate was recovered by centrifugation, washed with acetone and dissolved in SDS-PAGE sample buffer and analyzed by SDS-PAGE. Alternatively to TCA precipitation, TGFalpha-H8 in conditioned medium was captured by metal-chelate chromatography using Ni-NTA agarose beads (Qiagen) in the presence of 20 mM imidazole at pH 8.0. Subsequently beads were washed with 20 mM Tris-Cl pH 8.0, 50 mM imidazole, eluted with SDS-sample buffer and analyzed by SDS-PAGE and Western blotting (see below). Typically, from a 35 mm tissue culture dish, 10% of cell extracts and 20% of tissue culture supernatant were loaded. To increase the sensitivity, for experiments shown in FIGS. 1C, 3E, 4A and 4C, five times the amount of the media fractions were loaded.
(§1) Western blotting. Proteins were analyzed by 4-20% Tris-Glycine gradient gels (Invitrogen) followed by Western blot analysis using either anti FLAG M2-HRP (1:1000; Sigma), anti HA antibody 16B12 (1:1000; Covance), anti actin antibody ab8227 (1:5000; Abcam) or affinity purified polyclonal rabbit antibody anti RHBDL4 (1:4000; see above). In order to detect the 6 kDa form of TGFalpha, proteins were transferred on PVDF membrane with 0.2 μm pore size (Millipore) and probed with 1:100 anti TGFalpha antibody 134A-2B3 (Oncogene). For the detection of phosphorylated EGFR, PVDF membranes were blocked in 3% BSA in TBS-Tween supplemented with 200 μM NaVO3. Protein was detected with anti phospho-EGFR antibody 9H2 (1:2000, Upstate). […] Bound antibodies were detected by incubation with secondary antibody (Santa Cruz Biotechnology) followed by enhanced chemiluminescence (Amersham Biosciences).

pro-TGFalpha shedding = assay: BB94 sensitivity of endogenous pro-TGFalpha shedding and trimming (cell-based cleavage assay)
Method: (§2) Cell culture and cell-based rhomboid cleavage assay. Cells were propagated in DMEM supplemented with 10% fetal calf serum. COS-7 cells were transfected in 35 mm wells with FuGENE 6 (Roche) as described (7). In brief, 250 ng plasmid encoding the substrate (as indicated in the description of the figures), 25 ng for the rhomboid tested, 50 ng for the GRP receptor and empty plasmid to bring the total DNA to 1 μg was used. For protease titration, 2.5 ng to 250 ng plasmid coding RHBDL4 was used. HeLa and HEK293T were transfected with polyethyleneimine (linear, MW 25000; Polysciences) as described (32) using twice the amount of DNA as used with FuGENE. Transfection efficiency was monitored by co-transfection of pEGFP (Invitrogen). Sixteen hours post transfection, medium was replaced with serum-free medium containing 10 μM BB94 (British Biotech) unless otherwise stated. For activation of endogenous rhomboid activity, phorbol 12-myristate 13-acetate (PMA) (1 μM, from Sigma) or bombesin (100 nM, from Sigma) was added to the cell medium. […] Cells were solubilized in SDS-sample buffer and analyzed by SDS-PAGE. […] The precipitate was recovered by centrifugation, washed with acetone and dissolved in SDS-PAGE sample buffer and analyzed by SDS-PAGE. […] Subsequently beads were washed with 20 mM Tris-Cl pH 8.0, 50 mM imidazole, eluted with SDS-sample buffer and analyzed by SDS-PAGE and Western blotting (see below). […]
as §1, with “In order to detect the 6 kDa form of TGFalpha, proteins were transferred on PVDF membrane with 0.2 μm pore size (Millipore) and probed with 1:100 anti TGFalpha antibody 134A-2B3 (Oncogene). For the detection of phosphorylated EGFR, PVDF membranes were blocked in 3% BSA in TBS-Tween supplemented with 200 μM NaVO3.” left out

[2] = tested on: HB-EGF shedding, COS-7 cells; assay: HB-EGF secretion in COS-7 cells overexpressing the bombesin receptor; type: cell-based, green monkey
Method: Cells were propagated in DMEM supplemented with 10% fetal calf serum. COS-7 cells were transfected in 35 mm wells with FuGENE 6 (Roche) as described (7). In brief, 250 ng plasmid encoding the substrate (as indicated in the description of the figures), 25 ng for the rhomboid tested, 50 ng for the GRP receptor and empty plasmid to bring the total DNA to 1 μg was used. […] Transfection efficiency was monitored by co-transfection of pEGFP (Invitrogen). Sixteen hours post transfection, medium was replaced with serum-free medium containing 10 μM BB94 (British Biotech) unless otherwise stated. For activation of endogenous rhomboid activity, phorbol 12-myristate 13-acetate (PMA) (1 μM, from Sigma) or bombesin (100 nM, from Sigma) was added to the cell medium. For inhibitor studies, the indicated protease inhibitors (from Calbiochem), diluted from a stock solution in DMSO, were compared with a carrier only. […] Cells were solubilized in SDS-sample buffer and analyzed by SDS-PAGE. […] Conditioned media were centrifuged for 10 minutes at full speed in a microfuge to remove cell debris, and subsequently proteins in the supernatant were precipitated by adding trichloroacetic acid (TCA) to 10%. The precipitate was recovered by centrifugation, washed with acetone and dissolved in SDS-PAGE sample buffer and analyzed by SDS-PAGE. […]

mouse RHBDL4 = target: T1, mouse RHBDL4 (Mus musculus, UniProt Q8BHC7); assay: Cell-based rhomboid cleavage assay: pro-TGFalpha cleavage by overexpressed RHBDL4; set-up: expressed in transfected cells; host or cells: COS-7 (also HeLa and HEK293T), pcDNA3.1
T1 sequence (Q8BHC7 1-315): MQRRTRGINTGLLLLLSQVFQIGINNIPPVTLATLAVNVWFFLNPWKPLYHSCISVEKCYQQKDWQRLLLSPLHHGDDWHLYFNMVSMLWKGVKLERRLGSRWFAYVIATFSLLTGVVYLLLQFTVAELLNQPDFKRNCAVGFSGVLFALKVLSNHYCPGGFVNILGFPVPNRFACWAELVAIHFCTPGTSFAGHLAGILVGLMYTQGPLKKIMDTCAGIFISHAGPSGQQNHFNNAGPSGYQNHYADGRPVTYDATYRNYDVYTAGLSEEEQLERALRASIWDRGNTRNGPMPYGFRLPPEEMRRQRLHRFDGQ
Method: as §2, with “(Invitrogen).” for “(Invitrogen). Sixteen hours post transfection, medium was replaced with serum-free medium containing 10 μM BB94 (British Biotech) unless otherwise stated. For activation of endogenous rhomboid activity, phorbol 12-myristate 13-acetate (PMA) (1 μM, from Sigma) or bombesin (100 nM, from Sigma) was added to the cell medium.”
(§3) Western blotting. […] Protein was detected with anti phospho-EGFR antibody 9H2 (1:2000, Upstate). […] Bound antibodies were detected by incubation with secondary antibody (Santa Cruz Biotechnology) followed by enhanced chemiluminescence (Amersham Biosciences).

proteasome = assay: Proteasome inhibitor treatment of cells expressing pro-TGFalpha; type: cell-based; details: 5 μM
Method: as §2

protein kinase C (PKC) = assay: PMA-induced TGFalpha shedding (transactivation); type: cell-based; details: PMA 1 μM
Method: as §2, with “(Invitrogen).” for “(Invitrogen). Sixteen hours post transfection, medium was replaced with serum-free medium containing 10 μM BB94 (British Biotech) unless otherwise stated. For activation of endogenous rhomboid activity, phorbol 12-myristate 13-acetate (PMA) (1 μM, from Sigma) or bombesin (100 nM, from Sigma) was added to the cell medium.”
as §3

[3] = BB94 20 μM, FLAG6-tagged pro-TGFalpha

Compound: CCCCCCCCCC(=O)N[C@@H](CCCN=C(N)N)C(=O)N[C@H](C(=O)N[C@@H](CCCCN)C(=O)N[C@@H](CCCN=C(N)N)C(=O)CCl)C(C)C [furin inhibitor I] (Decanoyl-RVKR-CH2Cl)
- Generation and release of the higher molecular weight form of TGFalpha ([1]; inhibitor 100 μM): none of these inhibitors of known proprotein convertases had an effect

- RHBDL4 cleavage of pro-TGFalpha: sensitivity to inhibitor (mouse RHBDL4; COS-7 cells, BB94 10 μM): insensitive
- RHBDL4-triggered TGFalpha release: sensitivity to inhibitor (mouse RHBDL4; HEK293T cells, TGFalpha with juxtamembrane His8-tag): insensitive
Compound: CNC(=O)[C@H](Cc1ccccc1)NC(=O)[C@H](CC(C)C)[C@H](CSc1cccs1)C(=O)NO [BB94]
- Generation of the higher MW forms of TGFalpha by endogenous shedding: sensitivity to inhibitor (pro-TGFalpha shedding; [3]): insensitive
- Trimming to smaller intermediates and species lacking the pro-peptide (pro-TGFalpha shedding; [3]): blocked
- Processing of the 37 kDa form to the 6 kDa secreted bioactive ligand: sensitivity to inhibitor (pro-TGFalpha shedding; bombesin-treated COS-7 cells overexpressing the bombesin receptor): sensitive
- Bombesin-enhanced HB-EGF release: sensitivity to inhibitor ([2]; BB94 20 μM, bombesin treatment): insensitivity
- HB-EGF shedding by ADAM proteases in unstimulated cells: sensitivity to inhibitor ([2]; unstimulated cells, BB94): sensitive
- Release of the 6 kDa form of TGFalpha ([1]; BB94 20 μM, PMA induction, HEK293T): inhibited

Compound: beta-secretase inhibitor IV
- Generation and release of the higher molecular weight form of TGFalpha ([1]; inhibitor 10 μM): none of these inhibitors of known proprotein convertases had an effect

Compound: CC(C)C[C@H](CC(=O)NO)C(=O)N[C@H](C(=O)N[C@@H](C)C(=O)NCCN)C(C)(C)C [TAPI-2]
- Generation and release of the higher molecular weight form of TGFalpha ([1]; inhibitor 20 μM): none of these inhibitors of known proprotein convertases had an effect

Compound: CC(C)C[C@@H](C=O)NC(=O)[C@H](CC(C)C)NC(=O)[C@H](CC(C)C)NC(=O)OCc1ccccc1 [MG132] (Cbz-Leu-Leu-Leu-aldehyde)
- Effect on pro-TGFalpha forms (proteasomal degradation) (proteasome): led to unglycosylated TGFalpha

Compound: CCCCCCCCCCCCCC(=O)O[C@@H]1[C@@H](C)[C@@]2(O)[C@@H](C=C(CO)C[C@]3(O)C(=O)C(C)=C[C@@H]23)[C@@H]2C(C)(C)[C@]12OC(C)=O [PMA, phorbol 12-myristate 13-acetate]
- BB94-insensitive TGFalpha release activity (protein kinase C (PKC)): induced
- BB94-sensitive (metalloprotease dependent) trimming of TGFalpha (protein kinase C (PKC)): enhanced

Source: US20100173972A1, “METHODS AND USES RELATED TO RHBDL4” (MEDICAL RESEARCH COUNCIL, priority 2007, published 2010)
